# Assays:
# [1] = test system: BV2 microglial cells, stimulated with lipopolysaccharide (LPS); assay: TNFα ELISA in LPS-stimulated BV2 cells; assay type: cell-based, mouse; details: 0.1, 1.0, 2.5, 5.0 μM
# Protocol: (§1) BV2 cells were a gift from Dr. Bob McCusker, University of Illinois. They were cultured and maintained at 37 °C in a humidified atmosphere of 95% air and 5% CO2 in high-glucose Dulbecco’s modified Eagle’s (DMEM) medium (Cat No. 10-013-CV, Corning Life Sciences), supplemented with 5% heat-inactivated fetal bovine serum (FBS), streptomycin (100 μg/mL), and penicillin (100 units/mL). Stocks of all the minor cannabinoids were made in ethanol and stored at −80 °C and diluted as required before cell treatment. A final concentration of ethanol was maintained at 0.1% in the cell culture experiments.
# (§2) BV-2 cells were plated at a density of 50 000 cells/well in a 24-well plate at 37 °C under controlled conditions. Cells were pretreated with the minor cannabinoids at various concentrations (0.1, 1.0, 2.5, 5.0 μM) for 4 h and then stimulated with LPS for 24 h. The culture medium was removed and saved for the determination of nitric oxide production through Cayman’s Griess assay. IL-6, TNFα, and Arginase 1 production was also determined utilizing collected medium. For the Greiss assay, in a 96-well plate, 100 μL of culture medium was used, and 50 μL of both Greiss reagent-1 and Greiss reagent-2 was added and incubated for 10 min. The absorbance was measured at 540 nm using a plate reader (SpectraMax iD5). The quantification was done using a calibration curve that was generated using the sodium nitrite standard obtained from Cayman Chemicals.
# BV-2 cells were pretreated with the minor cannabinoids as described previously for 4 h in serum media (reduced to 5% FBS). Cells were stimulated with LPS (25 ng/mL in growth media) and allowed to incubate for 24 h. The culture medium was collected, and the concentrations of IL-6 (Cayman Chemicals), TNFα (ThermoFisher Scientific), and arginase 1 (ThermoFisher Scientific) cytokine expression were determined using specific monoclonal antibodies by ELISA kits as per manufacturer’s instructions.
# [2] = test system: BV2 microglial cells, stimulated with lipopolysaccharide (LPS); assay: Nitric oxide determination (Griess assay) in LPS-stimulated BV2 cells; assay type: cell-based, mouse; details: 0.1, 1.0, 2.5, 5.0 μM, vs cells treated with LPS only
# Protocol: as §1
# First, cell viability of BV2 cells was assessed after treatment with cannabinoids, at various concentrations (0.1, 1.0, 2.5, 5.0 μM), utilizing Cayman’s MTT assay. […] Once viability was determined, we measured the production of pro-inflammatory markers such as nitric oxide (NO), interleukin 6 (IL-6), tumor necrosis factor alpha (TNFα), and arginase 1 (Arg1) after BV2 cells were treated with minor cannabinoids and then stimulated with lipopolysaccharide (LPS) to evoke an inflammatory response.
# as §2
# [3] = target: cannabinoid receptor 2 (CB2); design: method as in PMID 31368508; details: agonist; cited from earlier work
Compound,effect on TNFα production [1],effect on NO release/production [2],Ki [3] [µM]
CCCCCc1cc(O)c2c(c1)OC(C)(CC/C=C(\C)CO)C=C2 (stereo not drawn) [8′-hydroxy-CBC],increase,elevated levels,
"CCCCCc1cc(O)c2c(c1)OC(C)(CCC=C(C)C)C=C2 (stereo not drawn) [CBC, Cannabichromene]",,,~0.1

# Source: article PMC11061835, “Elucidating the Mechanism of Metabolism of Cannabichromene by Human Cytochrome P450s” (Journal of Natural Products, 2024)
